Source: US8119687B2, “Derivatives of dioxan-2-alkyl carbamates, preparation thereof and application thereof in therapeutics” (Sanofi-Aventis, priority 2002, dated 2012)

Question: For `CNC(=O)COC(=O)NCCC[C@H]1OC[C@H](c2ccc(Cl)c3ccccc32)CO1` [compound 47, 2-(methylamino)-2-oxoethyl trans-3-[5-(4-chloro-naphthalen-1-yl)-1,3-dioxan-2-yl]propylcarbamate], which melting point is on record?
Answer: The melting point was 190 to 192 °C.

Question: With `O=C(NCC[C@H]1OC[C@H](c2cccc3ccccc32)CO1)Oc1ccccc1` as the compound, how does the melting point read?
Answer: The melting point was 131 to 133 °C.

Question: Which melting point does the source give for `COc1ccc2cccc([C@H]3CO[C@H](CCCNC(=O)OCC(F)(F)F)OC3)c2c1` [compound 74, 2,2,2-trifluoroethyl trans-3-[5-(7-methoxynaphthalen-1-yl)-1,3-dioxan-2-yl]propylcarbamate] here?
Answer: The melting point was 93 to 96 °C.

Question: For `COc1ccc2c(cccc2[C@H]2CO[C@H](CCCNC(=O)OCC(=O)NC3CC3)OC2)c1` [Compound No. 61, 2-(Cyclopropylamino)-2-oxoethyl trans-3-[5-(6-methoxy-naphthalen-1-yl)-1,3-dioxan-2-yl]propylcarbamate], which melting point is on record?
Answer: The melting point was 176 °C.

Question: Which melting point does the source give for `CNC(=O)COC(=O)NCCC[C@H]1OC[C@H](c2cccc3ccccc32)CO1` [compound 40, 2-(methylamino)-2-oxoethyl trans-3-[5-(naphthalen-1-yl)-1,3-dioxan-2-yl]propylcarbamate] here?
Answer: The melting point was 154 °C.

Question: With `COc1ccc2cccc([C@H]3CO[C@H](CCCNC(=O)OCC(N)=O)OC3)c2c1` [compound 72, 2-amino-2-oxoethyl trans-3-[5-(7-methoxynaphthalen-1-yl)-1,3-dioxan-2-yl]propylcarbamate] as the compound, how does the melting point read?
Answer: The melting point was 156 to 158 °C.

Question: Which melting point does the source give for `CNC(=O)COC(=O)NCCC[C@H]1OC[C@H](c2cccc3cc(O)ccc32)CO1` [compound 71, 2-(methylamino)-2-oxoethyl trans-3-[5-(6-hydroxy-naphthalen-1-yl)-1,3-dioxan-2-yl]propylcarbamate] here?
Answer: Its melting point is 140 to 148 °C.

Question: With `COc1ccc2c(cccc2[C@H]2CO[C@H](CCNC(=O)OCC(F)(F)F)OC2)c1` [compound 56, 2,2,2-trifluoroethyl trans-2-[5-(6-methoxynaphthalen-1-yl)-1,3-dioxan-2-yl]ethylcarbamate] as the compound, how does the melting point read?
Answer: Its melting point is 93 to 95 °C.

Question: Which melting point does the source give for `O=C(NCCC[C@H]1OC[C@H](c2cccc3cc(OCC4CC4)ccc32)CO1)OCC(F)(F)F` [Compound No. 68, 2,2,2-Trifluoroethyl trans-3-[5-(6-cyclopropylmethoxy-naphthalen-1-yl)-1,3-dioxan-2-yl]propylcarbamate] here?
Answer: Its melting point is 105 to 107 °C.

Question: For `NC(=O)COC(=O)NCCC[C@H]1OC[C@H](c2cccc3cc(O)ccc32)CO1` [compound 70, 2-amino-2-oxoethyl trans-3-[5-(6-hydroxynaphthalen-1-yl)-1,3-dioxan-2-yl]propylcarbamate], which melting point is on record?
Answer: The melting point was 166 to 170 °C.

Question: With `CNC(=O)COC(=O)NCC[C@H]1OC[C@H](c2cccc3cc(OC)ccc32)CO1` [compound 54, 2-(methylamino)-2-oxoethyl trans-2-[5-(6-methoxy-naphthalen-1-yl)-1,3-dioxan-2-yl]ethylcarbamate] as the compound, how does the melting point read?
Answer: The melting point was 136 to 138 °C.

Question: With `O=C(NCCC[C@H]1OC[C@H](c2cccc3cc(OCC4CC4)ccc32)CO1)Oc1ccc(Cl)cc1` as the compound, how does the melting point read?
Answer: Its melting point is 159 to 162 °C.

Question: For `COc1ccc2c(cccc2[C@H]2CO[C@H](CCCNC(=O)Oc3ccccc3)OC2)c1`, which melting point is on record?
Answer: Its melting point is 128 °C.

Question: Which melting point does the source give for `NC(=O)COC(=O)NCCC[C@H]1OC[C@H](c2cccc3cc(OCC4CC4)ccc32)CO1` [compound 66, 2-amino-2-oxoethyl trans-3-[5-(6-cyclopropylmethoxy-naphthalen-1-yl)-1,3-dioxan-2-yl]propylcarbamate] here?
Answer: The melting point was 137 to 139 °C.

Question: For `CNC(=O)COC(=O)NCCC[C@H]1OC[C@H](c2cccc3ccc(OC)cc32)CO1` [compound 73, 2-(methylamino)-2-oxoethyl trans-3-[5-(7-methoxy-naphthalen-1-yl)-1,3-dioxan-2-yl]propylcarbamate], which melting point is on record?
Answer: Its melting point is 144 to 146 °C.

Question: With `CNC(=O)COC(=O)NCC[C@H]1OC[C@H](c2cccc3ccccc32)CO1` [compound 39, 2-(methylamino)-2-oxoethyl trans-2-[5-(naphthalen-1-yl)-1,3-dioxan-2-yl]ethylcarbamate] as the compound, how does the melting point read?
Answer: The melting point was 86 to 88 °C.

Question: For `CNC(=O)COC(=O)NCCC[C@H]1OC[C@H](c2cccc3cc(OC)ccc32)CO1` [compound 57, 2-(methylamino)-2-oxoethyl trans-3-[5-(6-methoxy-naphthalen-1-yl)-1,3-dioxan-2-yl]propylcarbamate], which melting point is on record?
Answer: Its melting point is 128 to 130 °C.

Question: Which melting point does the source give for `COc1ccc2cccc([C@H]3CO[C@H](CCCNC(=O)Oc4ccccc4)OC3)c2c1` here?
Answer: Its melting point is 151 to 153 °C.

Question: Which melting point does the source give for `NC(=O)COC(=O)NCCC[C@H]1OC[C@H](c2ccc(Cl)c3ccccc32)CO1` [Compound No. 46, 2-Amino-2-oxoethyl trans-3-[5-(4-chloronaphthalen-1-yl)-1,3-dioxan-2-yl]propylcarbamate] here?
Answer: Its melting point is 176 to 178 °C.

Question: With `O=C(NCC[C@H]1OC[C@H](c2cccc3ccccc32)CO1)OCC(F)(F)F` [compound 41, 2,2,2-trifluoroethyl trans-2-[5-(naphthalen-1-yl)-1,3-dioxan-2-yl]ethylcarbamate] as the compound, how does the melting point read?
Answer: Its melting point is 111 to 113 °C.

Question: With `COc1ccc2c(cccc2[C@H]2CO[C@H](CCCNC(=O)OCC(=O)NCc3ccncc3)OC2)c1` [compound 60, 2-[(pyridin-4-yl)methylamino]-2-oxoethyl trans-3-[5-(6-methoxynaphthalen-1-yl)-1,3-dioxan-2-yl]propylcarbamate] as the compound, how does the melting point read?
Answer: The melting point was 152 °C.

Question: Which melting point does the source give for `O=C(NCCC[C@H]1OC[C@H](c2cccc3ccccc32)CO1)OCC(F)(F)F` [compound 42, 2,2,2-trifluoroethyl trans-3-[5-(naphthalen-1-yl)-1,3-dioxan-2-yl]propylcarbamate] here?
Answer: The melting point was 89 to 92 °C.

Question: For `O=C(NCCC[C@H]1OC[C@H](c2ccc3ccccc3c2)CO1)Oc1ccccc1`, which melting point is on record?
Answer: The melting point was 130 to 131 °C.

Question: For `CNC(=O)COC(=O)NCCC[C@H]1OC[C@H](c2ccc3ccccc3c2)CO1` [compound 77, 2-(methylamino)-2-oxoethyl trans-3-[5-(naphthalen-2-yl)-1,3-dioxan-2-yl]propylcarbamate], which melting point is on record?
Answer: The melting point was 144 to 146 °C.

Question: Which melting point does the source give for `O=C(NCCC[C@H]1OC[C@H](c2ccc3ccccc3c2)CO1)OCC(F)(F)F` [compound 78, 2,2,2-trifluoroethyl trans-3-[5-(naphthalen-2-yl)-1,3-dioxan-2-yl]propylcarbamate] here?
Answer: The melting point was 130 to 132 °C.

Question: For `COc1ccc2c(cccc2[C@H]2CO[C@H](CCCNC(=O)OCC(F)(F)F)OC2)c1` [compound 62, 2,2,2-trifluoroethyl trans-3-[5-(6-methoxynaphthalen-1-yl)-1,3-dioxan-2-yl]propylcarbamate], which melting point is on record?
Answer: Its melting point is 111 °C.

Question: With `O=C(NCCC[C@H]1OC[C@H](c2cccc3ccccc32)CO1)Oc1ccccc1` as the compound, how does the melting point read?
Answer: The melting point was 125 to 127 °C.

Question: Which melting point does the source give for `COc1ccc2c(cccc2[C@H]2CO[C@H](CCNC(=O)Oc3ccc(Cl)cc3)OC2)c1` here?
Answer: Its melting point is 129 to 131 °C.

Question: Which melting point does the source give for `CCNC(=O)COC(=O)NCCC[C@H]1OC[C@H](c2cccc3cc(OC)ccc32)CO1` [compound 58, 2-(ethylamino)-2-oxoethyl trans-3-[5-(6-methoxy-naphthalen-1-yl)-1,3-dioxan-2-yl]propylcarbamate] here?
Answer: The melting point was 170 to 172 °C.

Question: For `CNC(=O)COC(=O)NCCC[C@H]1OC[C@H](c2cccc3cc(Cl)ccc32)CO1` [compound 48, 2-(methylamino)-2-oxoethyl trans-3-[5-(6-chloro-naphthalen-1-yl)-1,3-dioxan-2-yl]propylcarbamate], which melting point is on record?
Answer: The melting point was 182 to 184 °C.

Question: Which melting point does the source give for `NC(=O)COC(=O)NCCC[C@H]1OC[C@H](c2cccc3ccccc32)CO1` [compound 38, 2-amino-2-oxoethyl trans-3-[5-(naphthalen-1-yl)-1,3-dioxan-2-yl]propylcarbamate] here?
Answer: Its melting point is 112 to 114 °C.
